Reference: patent US6096788A, “Antimalaria and antibabesiosis agents and pharmaceutical compositions containing such agents” (priority 1996, dated 2000)

Columns and labels:
[1] = Therapeutic index in infected mice (antimalaria activity compared with semi-chronic toxicity); format: in vivo; settings: mouse, in vivo, i.p. or s.c., twice a day for four days, ratio of activity over toxicity (LD50)
Experimental: In order to evaluate the therapeutic index of the different products, the activity of these products was tested in vivo and compared with […] toxicity in animals. This activity was measured using the test described by PETERS W. (Chemotherapy and Drug resistance in Malaria, 1970). A compound was administered for four consecutive days to mice previously infected with Plasmodium vinckei, petterei or chabaudi. The said compound was dissolved in a 0.9% NaCl solution. The preparations were thus administered intraperitoneally or subcutaneously in male Swiss mice infected by intravenous injection of Plasmodium petterei or Plasmodium chadaudi (10^6 infected cells). The compound was administered twice a day for four consecutive days, the first injection being performed two hours after the infestation and the second, 10 hours later. The parasitemia was determined on blood smears the day after the end of treatment. Toxicity was measured in vivo following the same schedule, the animals having received, under the same administration conditions as above, two injections per day for four days (semi-chronic toxicity). The results are expressed in lethal dose 50 (LD50), i.e. the dose causing death in 50% of the animals.
The results of these trials are summarized in Table I, below, and expressed as therapeutic index, or the ratio of activity over toxicity measured under the identical conditions described above.

[2] = tested on: Babesia bovis, Babesia canis; experiment: In vitro antibabesia activity, (3H) hypoxanthine incorporation; format: cell-based; settings: score from ED50 of (3H) hypoxanthine incorporation
From the text: The screening process for antimalaria activity, based on parasite incorporation of (^3 H) hypoxanthine was used to test the antimetabolic activity of such components against Babesia bovis, Babesia canis. A tight relationship was found between the rate of (^3 H) hypoxanthine incorporation using standard measurements and the percentage of parasitized cells determined by microscopy. […] The score was ++ for the same activity at a concentration of 0.01 to 0.1 micromoles and finally + for a concentration under or equal to 1 micromole.

CCC[N+](C)(CC)CCCCCCCCCCCCCC[N+](C)(CC)CCC (stereo not drawn) [EXAMPLE 1, N,N'-dimethyl-N,N'-diethyl-N,N'-dipropyl-1,14 tetradecanediaminium, dibromide]
selectivity ratio [1]: 50
Antibabesia activity at 10 millimoles [2]: ++ (the same activity at a concentration of 0.01 to 0.1 micromoles)

CCC[N+](C)(CC)CCCCCCCCCCCCCCC[N+](C)(CC)CCC.[Br-].[Br-] (stereo not drawn) [EXAMPLE 2, N,N'-dimethyl-N,N'-diethyl-N,N'-dipropyl-1,15-pentadecanediaminium dibromide]
selectivity ratio [1]: 42
Antibabesia activity at 10 millimoles [2]: + (a concentration under or equal to 1 micromole)

CCC[N+](C)(CC)CCCCCCCCCCCCCCCC[N+](C)(CC)CCC.[Br-].[Br-] (stereo not drawn) [EXAMPLE 3, N,N'-dimethyl-N,N'-diethyl-N,N'-dipropyl-1,16-hexadecanediaminium dibromide]
selectivity ratio [1]: 15

CCC[N+](C)(CC)CCCCCCCCCCCCCCCCC[N+](C)(CC)CCC.[Br-].[Br-] (stereo not drawn) [EXAMPLE 4, N,N'-dimethyl-N,N'-diethyl-N,N'-dipropyl-1,17-heptadecanediaminium dibromide]
selectivity ratio [1]: 17
Antibabesia activity at 10 millimoles [2]: ++ (the same activity at a concentration of 0.01 to 0.1 micromoles)

CCC[N+](C)(CC)CCCCCCCCCCCCCCCCCC[N+](C)(CC)CCC.[Br-].[Br-] (stereo not drawn) [EXAMPLE 5, N,N'-dimethyl-N,N'-diethyl-N,N'-dipropyl-1,18-octadecanediaminium dibromide]
selectivity ratio [1]: 12
Antibabesia activity at 10 millimoles [2]: +++ (a 50% inhibition of (^3 H) hypoxanthine incorporation (ED50), these molecules having a concentration less than or equal to 0.01 micromoles)

CCC[N+](C)(CC)CCCCCCCCCCCCCCCCCCCC[N+](C)(CC)CCC.[Br-].[Br-] (stereo not drawn) [EXAMPLE 6, N,N'-dimethyl-N,N'-diethyl-N,N'-dipropyl-1,20-eicosanediaminium dibromide]
selectivity ratio [1]: 15
Antibabesia activity at 10 millimoles [2]: ++ (the same activity at a concentration of 0.01 to 0.1 micromoles)

CCC[N+](C)(CC)CCCCCCCCCCCCCCCCCCCCCC[N+](C)(CC)CCC (stereo not drawn) [EXAMPLE 7, N,N'-dimethyl-N,N'-diethyl-N N'-dipropyl-1,22-cosanediaminium dibromide]
selectivity ratio [1]: 35
Antibabesia activity at 10 millimoles [2]: ++ (the same activity at a concentration of 0.01 to 0.1 micromoles)

CCC[N+](CCC)(CCC)CCCCCCCCCCCCCC[N+](CCC)(CCC)CCC.[Br-].[Br-] [EXAMPLE 8, N,N,N,N',N',N'-hexapropyl-1,14-tetradecanediaminium dibromide]
selectivity ratio [1]: 20
Antibabesia activity at 10 millimoles [2]: + (a concentration under or equal to 1 micromole)

CCC[N+](CCC)(CCC)CCCCCCCCCCCCCCCCCCCC[N+](CCC)(CCC)CCC.[Br-].[Br-] [EXAMPLE 10, N,N,N,N', N',N'-hexapropyl-1,20-eicosanediaminium dibromide]
selectivity ratio [1]: 14
Antibabesia activity at 10 millimoles [2]: + (a concentration under or equal to 1 micromole)

CCC[N+](CCC)(CCC)CCCCCCCCCCCCCCCCCCCCCCCC[N+](CCC)(CCC)CCC.[Br-].[Br-] [EXAMPLE 11, N,N,N,N',N',N'-hexapropyl-1,24-tetracosanediaminium dibromide]
selectivity ratio [1]: 28
Antibabesia activity at 10 millimoles [2]: + (a concentration under or equal to 1 micromole)

CC[N+](C)(CC)CCCCCCCCCCCCCCCC[N+](C)(CC)CC [EXAMPLE 13, N,N'-dimethyl-,N,N,N',N'-tetraethyl-1,16-hexadecanediaminium dibromide]
selectivity ratio [1]: 6
Antibabesia activity at 10 millimoles [2]: +++ (a 50% inhibition of (^3 H) hypoxanthine incorporation (ED50), these molecules having a concentration less than or equal to 0.01 micromoles)

CC[N+](C)(CC)CCCCCCCCCCCCCCCCCC[N+](C)(CC)CC [EXAMPLE 14, N,N'-dimethyl-,N,N,N',N'-tetraethyl-1,18-octadecanediaminium dibromide]
selectivity ratio [1]: 14
Antibabesia activity at 10 millimoles [2]: +++ (a 50% inhibition of (^3 H) hypoxanthine incorporation (ED50), these molecules having a concentration less than or equal to 0.01 micromoles)

CC[N+](C)(CC)CCCCCCCCCCCCCCCCCCCCC[N+](C)(CC)CC [EXAMPLE 15, N,N'-dimethyl-,N,N,N',N'-tetraethyl-1,21-heneicosanediaminium dibromide]
selectivity ratio [1]: 12
Antibabesia activity at 10 millimoles [2]: +++ (a 50% inhibition of (^3 H) hypoxanthine incorporation (ED50), these molecules having a concentration less than or equal to 0.01 micromoles)

C[N+]1(CCCCCCCCCCCCCC[N+]2(C)CCCC2)CCCC1 [EXAMPLE 16, 1,1'-(1,14-tetradecanediyl)bis(1-methylpyrrolidium) dibromide]
selectivity ratio [1]: 8
Antibabesia activity at 10 millimoles [2]: +++ (a 50% inhibition of (^3 H) hypoxanthine incorporation (ED50), these molecules having a concentration less than or equal to 0.01 micromoles)

C[N+]1(CCCCCCCCCCCCCCCC[N+]2(C)CCCC2)CCCC1 [EXAMPLE 17, 1,1'-(1,16-hexadecanediyl)bis(1-methylpyrrolidium) dibromide]
selectivity ratio [1]: 7
Antibabesia activity at 10 millimoles [2]: +++ (a 50% inhibition of (^3 H) hypoxanthine incorporation (ED50), these molecules having a concentration less than or equal to 0.01 micromoles)

C[N+]1(CCCCCCCCCCCCCCCCCCCCCC[N+]2(C)CCCC2CO)CCCC1CO (stereo not drawn) [EXAMPLE 19, 1,1'-(1,22-docosanediyl)bis(2-hydroxymethl-1-methylpyrrolidium) dibromide]
selectivity ratio [1]: 40
Antibabesia activity at 10 millimoles [2]: + (a concentration under or equal to 1 micromole)

C[N+]1(CCCCCCCCCCCCCCCC[N+]2(C)CCOCC2)CCOCC1 [EXAMPLE 21, 1,1'-(1,16-hexadecanediyl)bis(1-methylmorphofinium) dibromide]
selectivity ratio [1]: 25
Antibabesia activity at 10 millimoles [2]: +++ (a 50% inhibition of (^3 H) hypoxanthine incorporation (ED50), these molecules having a concentration less than or equal to 0.01 micromoles)

CCCCCCCCCCCC[N+](C)(C)CCCCCCCCCCCCCCCC[N+](C)(C)CCCCCCCCCCCC.[Br-].[Br-] [EXAMPLE 22, N,N'-didodecyl-N,N,N',N'-tetramethyl-1,16-hexadecanediaminium dibromide]
selectivity ratio [1]: 20
Antibabesia activity at 10 millimoles [2]: ++ (the same activity at a concentration of 0.01 to 0.1 micromoles)

CCCCCCCCCCCC[N+](C)(C)CCCCCCCCCCCCCCCCCC[N+](C)(C)CCCCCCCCCCCC [EXAMPLE 23]
selectivity ratio [1]: 35
Antibabesia activity at 10 millimoles [2]: + (a concentration under or equal to 1 micromole)

C#CC[N+](C)(C)CCCCCCCCCCCCCC[N+](C)(C)CC#C.[Br-].[Br-] [EXAMPLE 24, N,N'-di(2-propynyl)-N,N,N',N'-tetramethyl-1,14-tetradecandiaminium dibromide]
selectivity ratio [1]: 12
Antibabesia activity at 10 millimoles [2]: ++ (the same activity at a concentration of 0.01 to 0.1 micromoles)

C=CC[N+](C)(C)CCCCCCCCCCCCCC[N+](C)(C)CC=C.[Br-].[Br-] [EXAMPLE 25, N,N'-di(2-propenyl)-N,N,N',N'-tetramethyl-1,14-tetradecanediaminium dibromide]
selectivity ratio [1]: 15
Antibabesia activity at 10 millimoles [2]: +++ (a 50% inhibition of (^3 H) hypoxanthine incorporation (ED50), these molecules having a concentration less than or equal to 0.01 micromoles)

C#CCC[N+](C)(C)CCCCCCCCCCCCCC[N+](C)(C)CCC#C.[Br-].[Br-] [EXAMPLE 26, N,N'-di(3-butynyl)-N,N,N',N'-tetramethyl-1,14-tetradecanediaminium dibromide]
selectivity ratio [1]: 45
Antibabesia activity at 10 millimoles [2]: ++ (the same activity at a concentration of 0.01 to 0.1 micromoles)

CCC[N+](CCC)(CCO)CCCCCCCCCCCCCC[N+](CCC)(CCC)CCO.[Br-].[Br-] [EXAMPLE 27, N,N'-di(2-hydroxyethyl)-N,N,N',N'-tetrapropyl-1,14-tetradecanediaminium dibromide]
selectivity ratio [1]: 15
Antibabesia activity at 10 millimoles [2]: ++ (the same activity at a concentration of 0.01 to 0.1 micromoles)

CCC[N+](CCC)(CCCCCCCCCCCCCC[N+](CCC)(CCC)CCOCC)CCOCC.[Br-].[Br-] [EXAMPLE 28, N,N'-di(2-ethoxyethyl)-N,N,N',N'-tetrapropyl-1,14-tetradecanediaminium dibromide]
selectivity ratio [1]: 40
Antibabesia activity at 10 millimoles [2]: +++ (a 50% inhibition of (^3 H) hypoxanthine incorporation (ED50), these molecules having a concentration less than or equal to 0.01 micromoles)

CCC[N+](CCC)(CCO)CCCCCCCCCCCCCCCC[N+](CCC)(CCC)CCO.[Br-].[Br-] [EXAMPLE 29, N,N'-di-(2-hydroxyethyl)-N,N,N',N'-tetrapropyl-1,16 hexadecane diaminium dibromide]
selectivity ratio [1]: 12
Antibabesia activity at 10 millimoles [2]: ++ (the same activity at a concentration of 0.01 to 0.1 micromoles)

CCC[N+](CCC)(CCO)CCCCCCCCCCCCCCCCCCCC[N+](CCC)(CCC)CCO.[Br-].[Br-] [EXAMPLE 30, N,N'-di(2-hydroxyethyl)-N,N,N',N'-tetrapropyl-1,20-eicosanediaminium dibromide]
selectivity ratio [1]: 55
Antibabesia activity at 10 millimoles [2]: +++ (a 50% inhibition of (^3 H) hypoxanthine incorporation (ED50), these molecules having a concentration less than or equal to 0.01 micromoles)
